From article PMC10076643, “Design, synthesis and anticancer activity studies of 3-(coumarin-3-yl)-acrolein derivatives: Evidenced by integrating network pharmacology and vitro assay” (Frontiers in Pharmacology, 2023)

What was measured:
[1] = test system: Hela (human cervical carcinoma cell line); assay: MTT antiproliferative assay, Hela; type: cell-based; conditions: 72 h
Excerpt: (§1) All the synthesized compounds were screened for in vitro antiproliferative activity against four human cancer cell lines A549 (human lung cancer cell line), KB (human oral epidermoid carcinoma cell line), Hela (human cervical carcinoma cell line), MCF-7 (human breast cancer cell line) and two human normal cell lines HUVEC (human umbilical vein endothelial cell) and LO2 (human normal hepatocytes) through the 3-(4,5-dimethyl-2-thiazolyl)-2,5-diphenyl-2-H-tetrazolium bromide (MTT) assay.
(§2) Non-small-cell lung cancer (A549), oral epidermoid carcinoma (KB), cervical cancer (Hela) and breast cancer (MCF-7) cells were purchased from the American Type Culture Collection (ATCC, America). Human umbilical vein endothelial cell (HUVEC) and human normal hepatocytes (LO2) cells were provided by Guangzhou Medical University (Guangzhou, China). A549 and KB cells were cultured in RMPI-1640 medium (Gibco, America). Hela, MCF-7 and LO2 cells were cultured in DMEM medium (Gibco, America). HUVEC cells were cultured in Ham’s F-12K medium (Gibco, America). All the mediums were supplemented with 10% fetal bovine serum (FBS) (BI, State of Israel), 100 U/mL penicillin and 100 μg/mL streptomycin (Gibco, America), and all the cells were incubated in a sterile incubator at 37°C in an environment of 5% CO2. The tested compounds were dissolved in dimethyl sulfoxide (DMSO) at a concentration of 10 mM, and then diluted into different concentration of solutions by culture medium. The final concentration of DMSO was <0.01% (v/v) in all drug treatment groups to avoid the toxicity in the biological system. Untreated cells were used as a blank control and 5-fluorouracil treated cells were used as a positive control.
(§3) The incubated tumor cells were planted into 96-well plates (4×10^3 cells/well). After 24 h, the cells were adherent to the wall and treated with the compound 6e in different concentrations (0.78, 1.56, 3.12, 6.25, 12.50, 25.00, and 50.00 μM) for 72 h. Afterwards, the medium was supplemented with 10 µL MTT solution. After 4 h, the culture medium was removed and 100 µL DMSO was added. The absorbance was determined at the wavelength of 540 nm and 655 nm using a microplate reader (BioTek Epoch, America). The results were collected from three independent experiments. The IC50 was then calculated by using GraphPad Prism Software (version 7.0) and non-linear regression (curve fit).

[2] = test system: LO2 (human normal hepatocytes); assay: MTT antiproliferative assay, LO2 normal cells; type: cell-based; conditions: Hepatocyte, 72 h
Excerpt: as §1, §2, §3

[3] = test system: MCF-7 (human breast cancer cell line); assay: MTT antiproliferative assay, MCF-7; type: cell-based; conditions: MCF7, 72 h
Excerpt: as §1, §2, §3

[4] = test system: HUVEC (human umbilical vein endothelial cell); assay: MTT antiproliferative assay, HUVEC normal cells; type: cell-based; conditions: 72 h
Excerpt: as §1, §2, §3

[5] = test system: KB (human oral epidermoid carcinoma cell line); assay: MTT antiproliferative assay, KB; type: cell-based; conditions: Homo sapiens; MTT, 72 h
Excerpt: as §1, §2, §3

[6] = test system: A549 (human lung cancer cell line); assay: MTT antiproliferative assay, A549; type: cell-based; conditions: for IC50: Homo sapiens, A549, MTT, 72 h
Excerpt: as §1, §2, §3

[7] = test system: various human cancer cells; set-up: method as in Yan et al., 2022; conditions: ref Yan et al., 2022; read-out: IC50 values, anti-proliferative activities towards various human cancer cells; cited from earlier work

SMILES | IC50 [1] [µM] | IC50 [3] [µM] | IC50 [5] [µM] | IC50 [6] [µM] | melting point [°C] | IC50 [2] [µM] | IC50 [4] [µM] | more potent than 5a and 5-FU ([6]; A549 cells, relative to 5a and 5-FU) [fold] | IC50 [7] [µM]
O=c1[nH]cc(F)c(=O)[nH]1 [5-FU, 5-Fluorouracil, reference compound] | 1.37 ± 1.72 | 19.2 ± 3.29 | 5.75 ± 2.23 | 7.41 ± 0.09 |  | 10.68 ± 0.03 | 4.08 ± 0.06 |  | 
O=CC=C(Cl)c1cc2ccccc2oc1=O [Compound 5a, 3-Chloro-3-(2-oxo-2H-chromen-3-yl)acrylaldehyde] | 1.01 ± 0.28 | 3.55 ± 0.17 | 1.3 ± 0.02 | 7.97 ± 0.01 | 167 to 169 | 40.34 ± 0.02 | 22.8 ± 0.35 |  | 
O=CC=C(Cl)c1cc2ccc(O)cc2oc1=O [Compound 5b, 3-Chloro-3-(7-hydroxy-2-oxo-2H-chromen-3-yl)acrylaldehyde] | > 100 | 6.74 ± 0.64 | > 100 | > 100 | 204 to 205 | > 100 | > 100 |  | 
CCN(CC)c1ccc2cc(C(Cl)=CC=O)c(=O)oc2c1 [Compound 5c, 3-Chloro-3-(7-(diethylamino)-2-oxo-2H-chromen-3-yl)acrylaldehyde] | 4.85 ± 0.19 | 18.99 ± 0.18 | 3.15 ± 0.09 | 7.51 ± 0.02 | 206 to 208 | 52.65 ± 0.07 | 6.42 ± 0.51 |  | 
O=CC=C(Cl)c1cc2ccc(Br)cc2oc1=O [Compound 5d, 3-(7-Bromo-2-oxo-2H-chromen-3-yl)-3-chloroacrylaldehyde] | 1.36 ± 0.43 | 4.23 ± 0.15 | 1.12 ± 0.03 | 0.7 ± 0.05 | 182 to 183 | 42.97 ± 0.04 | 10.52 ± 0.02 | 10 | 
O=CC=C(Cl)c1cc2cc(O)ccc2oc1=O [Compound 5e, 3-Chloro-3-(6-hydroxy-2-oxo-2H-chromen-3-yl)acrylaldehyde] | > 100 | 8.71 ± 0.31 | 3.23 ± 0.3 | 6.67 ± 0.01 | 250 to 252 | 14.11 ± 0.04 | 34.84 ± 0.11 |  | 
Cc1ccc2oc(=O)c(C(Cl)=CC=O)cc2c1 [Compound 5f, 3-Chloro-3-(6-methyl-2-oxo-2H-chromen-3-yl)acrylaldehyde] | 3.82 ± 0.11 | 20.1 ± 0.32 | 2.22 ± 0.04 | 4.57 ± 0.01 | 179 to 181 | 25.01 ± 0.03 | 27.38 ± 0.24 |  | 
O=CC=C(Cl)c1cc2cc(Br)ccc2oc1=O [Compound 5g, 3-(6-Bromo-2-oxo-2H-chromen-3-yl)-3-chloroacrylaldehyde] | 13.4 ± 0.22 | 9.25 ± 0.1 | 0.87 ± 0.01 | 2.45 ± 0.01 | 199 to 201 | 66.36 ± 0.09 | 10.9 ± 0.02 |  | 
COc1ccc2c(/C=C(\C)C(=O)c3cc(OC)c(OC)c([Se]C)c3)c[nH]c2c1 [compound J] |  |  |  |  |  |  |  |  | 0.008 to 0.035

Second part, led by results:

IC50 [1] [µM] | IC50 [3] [µM] | IC50 [5] [µM] | IC50 [6] [µM] | melting point [°C] | SMILES | IC50 [2] [µM] | IC50 [4] [µM] | more potent than 5a and 5-FU ([6]; A549 cells, relative to 5a and 5-FU) [fold] | IC50 [7] [µM]
> 100 | 12.4 ± 0.49 | 3.41 ± 0.4 | 2.78 ± 0.01 | 202 to 203 | COc1ccc2cc(C(Cl)=CC=O)c(=O)oc2c1 [Compound 6a, 3-Chloro-3-(7-methoxy-2-oxo-2H-chromen-3-yl)acrylaldehyde] | 61.04 ± 0.03 | 10.09 ± 0.07 |  | 
2.91 ± 0.17 | 23.29 ± 0.2 | > 100 | 11.34 ± 0.07 | 195 to 196 | CCOc1ccc2cc(C(Cl)=CC=O)c(=O)oc2c1 [Compound 6b, 3-Chloro-3-(7-ethoxy-2-oxo-2H-chromen-3-yl)acrylaldehyde] | > 100 | > 100 |  | 
> 100 | 1.73 ± 0.01 | 4.54 ± 0.11 | 6.28 ± 0.04 | 150 to 152 | CCCOc1ccc2cc(C(Cl)=CC=O)c(=O)oc2c1 [Compound 6c, 3-Chloro-3-(2-oxo-7-propoxy-2H-chromen-3-yl)acrylaldehyde] | 43.52 ± 0.03 | 53.92 ± 0.46 |  | 
22.7 ± 0.21 | 51.63 ± 0.13 | 4.28 ± 0.02 | 5.61 ± 0.01 | 149 to 151 | CC(C)Oc1ccc2cc(C(Cl)=CC=O)c(=O)oc2c1 [Compound 6d, 3-Chloro-3-(7-isopropoxy-2-oxo-2H-chromen-3-yl)acrylaldehyde] | 33.27 ± 0.02 | 31.92 ± 0.07 |  | 
> 100 | > 100 | > 100 | > 100 | 250 to 252 | O=CC=C(Cl)c1cc2ccc(OCc3ccc([N+](=O)[O-])cc3)cc2oc1=O [Compound 6f, 3-Chloro-3-(7-((4-nitrobenzyl)oxy)-2-oxo-2H-chromen-3-yl)acrylaldehyde] | > 100 | > 100 |  | 
> 100 | 5.13 ± 0.07 | > 100 | > 100 | 217 to 219 | O=CC=C(Cl)c1cc2ccc(OCc3cccc(Br)c3)cc2oc1=O [Compound 6g, 3-(7-((3-Bromobenzyl)oxy)-2-oxo-2H-chromen-3-yl)-3-chloroacrylaldehyde] | > 100 | > 100 |  | 
